Measured values as given in US10829718B2, “Detergent composition comprising a carbinol functional trisiloxane” (Dow Silicones Corporation, priority 2016, dated 2020).

Assay type: physicochemical
Description: The directive essentially states that if a material is classified as a surfactant in must pass certain biodegradation protocols. A surfactant was generally defined as a material capable of: 1) reducing the surface tension of water to ≤45 dynes/cm (or ≤45 mN/m) at a concentration of 0.5 wt % of the material in water; 2) forming spreading or adsorption monolayers at an air/water interface; 3) forming emulsions, microemulsions and/or micelles; and 4) adsorption at a water/solid interface. Surface tension of an aqueous solution, fluid, or mixture can readily be determined by various methods understood in the art. Generally, for stable solutions or mixtures, an equilibrium method such as the Wilhelmy plate method or Du Noüy ring method can be utilized. Alternately, for more dynamic systems, a pendant drop method can be utilized. This technique results in a fresh surface for each measurement. This method is also useful to reduce the potential for insoluble hydrophobic impurities or oils which could impact the surface tension measurement resulting in artificially low surface tension values. An example of such a surfactant assessment/classification is illustrated in the flow diagram of FIG. 3. Referring to the protocol illustrated in FIG. 3, the initial assessment is whether or not a 0.5 wt % mixture of the material being tested is soluble in water. Mixtures were prepared by adding 0.5% of the material to distilled water at 20° C. and mixing with a magnetic stir bar for one hour. If the material is soluble in water, as indicated, for example, by the formation of a clear or slightly hazy mixture, then surface tension (σ) is determined. If σ is >45 mN/m, the material is not classified as a surfactant. If σ is ≤45 mN/m, and micelles are not present, the material is not classified as a surfactant. Conversely, if micelles are present, the material is classified as a surfactant. If the material is not soluble in water, and no emulsion is present (e.g. solid particles or gels are present instead), then the material is not classified as a surfactant. If an emulsion is present (e.g. droplets are present) and the emulsion in stable, then σ is determined. If σ is >45 mN/m, the material is not classified as a surfactant. Conversely, if σ is ≤45 mN/m, the material is classified as a surfactant. If the material is not soluble in water, and an emulsion is present (e.g. droplets are present) and the emulsion is not stable, the emulsion is then centrifuged. The (clear) main phase (or supernatant) of the emulsion is further studied and the a is determined. If σ is >45 mN/m, the material is not classified as a surfactant. Conversely, if σ is ≤45 mN/m, and micelles are not present, the material is not classified as a surfactant. […]

CN(CC(O)COCCC[Si](C)(O[Si](C)(C)C)O[Si](C)(C)C)C[C@H](O)[C@@H](O)[C@H](O)[C@H](O)CO (stereo partly shown) [Example 11, BisH-AGE-NMG]
solubility in water: generally insoluble | stability of the mixture in water: stable | appearance / behaviour of the mixture in water (0.5 wt % mixture in water): formed a hazy mixture | classification as surfactant / non-surfactant according to the protocol/flow diagram (0.5 wt % of the material in distilled water at 20° C., mixed one hour): surfactant
